Test results as given in patent US10487068B2, “Pyridazine derivatives as RORc modulators” (Genentech, Inc., priority 2015, dated 2019).

target: T1, RORc ligand binding domain (Homo sapiens, UniProt P51449); assay: In Vitro RORc Ligand Binding Assay; conditions: RORc IC50, radioligand 25-[3H]hydroxycholesterol 6 nM; 0.6 ug/mL RORc receptor; 3 h at 25° C.
T1 sequence (P51449 269-508 limits assumed): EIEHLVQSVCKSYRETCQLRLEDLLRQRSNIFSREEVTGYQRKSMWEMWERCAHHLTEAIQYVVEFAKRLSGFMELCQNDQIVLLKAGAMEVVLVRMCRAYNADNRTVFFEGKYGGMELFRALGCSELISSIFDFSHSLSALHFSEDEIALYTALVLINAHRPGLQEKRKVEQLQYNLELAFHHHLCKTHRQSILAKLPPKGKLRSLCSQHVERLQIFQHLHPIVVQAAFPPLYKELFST

Compound	IC50 [nM]
C[C@H](CO)NC(=O)c1ccnc([C@@]23CC[C@@H](c4cc(-c5c(F)cccc5F)nnc42)C3(C)C)c1 [Example 67]	276
C[C@@H](CO)NC(=O)c1ccnc([C@@]23CC[C@@H](c4cc(-c5c(F)cccc5F)nnc42)C3(C)C)c1 [Example 68]	553
CC1(C)[C@H]2CC[C@]1(c1cc(C(N)=O)ccn1)c1nnc(-c3c(F)cccc3F)cc12 [Example 69]	26.4
CNC(=O)c1ccnc([C@@]23CC[C@@H](c4cc(-c5c(F)cccc5F)nnc42)C3(C)C)c1 [Example 70]	50
CC1(C)[C@H]2CC[C@]1(c1cc(N)ccn1)c1nnc(-c3c(F)cccc3F)cc12 [Example 71]	1510
CC1(C)[C@H]2CC[C@]1(c1cccc(N)n1)c1nnc(-c3c(F)cccc3F)cc12 [Example 72, 6-((5R,8S)-3-(2,6-difluorophenyl)-9,9-dimethyl-5,6,7,8-tetrahydro-5,8-methanocinnolin-8-yl)pyridin-2-amine]	2.6
CC1(C)[C@@H]2CC[C@@]1(c1cncc(C(=O)NCCO)n1)c1nnc(-c3c(F)cccc3F)cc12 [Example 73, 6-((5S,8R)-3-(2,6-difluorophenyl)-9,9-dimethyl-5,6,7,8-tetrahydro-5,8-methanocinnolin-8-yl)-N-(2-hydroxyethyl)pyrazine-2-carboxamide]	32.4
CC(=O)Nc1ccnc([C@@]23CC[C@@H](c4cc(-c5c(F)cccc5F)nnc42)C3(C)C)c1 [Example 74]	118
CC1(C)[C@H]2CC[C@]1(c1cc(-c3nnc(CO)o3)ccn1)c1nnc(-c3c(F)cccc3F)cc12 [Example 75]	167
CN(C)C(=O)c1ccnc([C@@]23CC[C@@H](c4cc(-c5c(F)cccc5F)nnc42)C3(C)C)c1 [Example 76]	1470
CC(C)(O)CNC(=O)c1ccnc([C@@]23CC[C@@H](c4cc(-c5c(F)cccc5F)nnc42)C3(C)C)c1 [Example 77]	139
CC1(C)[C@H]2CC[C@]1(c1cc(NS(C)(=O)=O)ccn1)c1nnc(-c3c(F)cccc3F)cc12 [Example 78]	1190
CC1(C)[C@H]2CC[C@]1(c1cc(CO)ccn1)c1nnc(-c3c(F)cccc3F)cc12 [Example 79]	47.3
CC1(C)[C@H]2CC[C@]1(c1cccc(NS(C)(=O)=O)n1)c1nnc(-c3c(F)cccc3F)cc12 [Example 80, N-(6-((5R,8S)-3-(2,6-difluorophenyl)-9,9-dimethyl-5,6,7,8-tetrahydro-5,8-methanocinnolin-8-yl)pyridin-2-yl)methanesulfonamide]	11.2
CC1(C)[C@H]2CC[C@]1(c1ccnc(C(=O)NCCO)n1)c1nnc(-c3c(F)cccc3F)cc12 [Example 81]	52.8
CC1(C)[C@@H]2CC[C@@]1(c1cncc(C(=O)NC3COC3)n1)c1nnc(-c3c(F)cccc3F)cc12 [Example 82, 6-((5S,8R)-3-(2,6-difluorophenyl)-9,9-dimethyl-5,6,7,8-tetrahydro-5,8-methanocinnolin-8-yl)-N-(oxetan-3-yl)pyrazine-2-carboxamide]	129
CC1(C)[C@H]2CC[C@]1(c1cccc(C(=O)NCCS(C)(=O)=O)n1)c1nnc(-c3c(F)cccc3F)cc12 [Example 83, 6-((5R,8S)-3-(2,6-difluorophenyl)-9,9-dimethyl-5,6,7,8-tetrahydro-5,8-methanocinnolin-8-yl)-N-(2-(methylsulfonyl)ethyl)picolinamide]	13.3
CC1(C)[C@H]2CC[C@]1(c1cncc(-c3nnc(CO)o3)n1)c1nnc(-c3c(F)cccc3F)cc12 [Example 84, (5-(6-((5R,8S)-3-(2,6-difluorophenyl)-9,9-dimethyl-5,6,7,8-tetrahydro-5,8-methanocinnolin-8-yl)pyrazin-2-yl)-1,3,4-oxadiazol-2-yl)methanol]	26.3
CC1(C)[C@H]2CC[C@]1(c1cncc(C(=O)NCCCO)n1)c1nnc(-c3c(F)cccc3F)cc12 [Example 85, 6-((5R,8S)-3-(2,6-difluorophenyl)-9,9-dimethyl-5,6,7,8-tetrahydro-5,8-methanocinnolin-8-yl)-N-(3-hydroxypropyl)pyrazine-2-carboxamide]	30.6
CC(C)(O)CNC(=O)c1cncc([C@@]23CC[C@@H](c4cc(-c5c(F)cccc5F)nnc42)C3(C)C)n1 [Example 86, 6-((5R,8S)-3-(2,6-difluorophenyl)-9,9-dimethyl-5,6,7,8-tetrahydro-5,8-methanocinnolin-8-yl)-N-(2-hydroxy-2-methylpropyl)pyrazine-2-carboxamide]	45
CC1(C)[C@H]2CC[C@]1(c1cncc(CO)n1)c1nnc(-c3c(F)cccc3F)cc12 [Example 87, (6-((5R,8S)-3-(2,6-difluorophenyl)-9,9-dimethyl-5,6,7,8-tetrahydro-5,8-methanocinnolin-8-yl)pyrazin-2-yl)methanol]	15.8
Cc1cnc(-c2cncc([C@@]34CC[C@@H](c5cc(-c6c(F)cccc6F)nnc53)C4(C)C)n2)o1 [Example 88, 2-(6-((5R,8S)-3-(2,6-difluorophenyl)-9,9-dimethyl-5,6,7,8-tetrahydro-5,8-methanocinnolin-8-yl)pyrazin-2-yl)-5-methyloxazole]	5.4
C[C@H](O)CNC(=O)c1cncc([C@]23CC[C@H](c4cc(-c5c(F)cccc5F)nnc42)C3(C)C)n1 [Example 89, 6-((5S,8R)-3-(2,6-difluorophenyl)-9,9-dimethyl-5,6,7,8-tetrahydro-5,8-methanocinnolin-8-yl)-N-((S)-2-hydroxypropyl)pyrazine-2-carboxamide]	12.8
CC1(C)[C@H]2CC[C@]1(c1cncc(C(=O)NCCC#N)n1)c1nnc(-c3c(F)cccc3F)cc12 [Example 90, N-(2-cyanoethyl)-6-((5R,8S)-3-(2,6-difluorophenyl)-9,9-dimethyl-5,6,7,8-tetrahydro-5,8-methanocinnolin-8-yl)pyrazine-2-carboxamide]	23
CN(CCO)C(=O)c1cncc([C@@]23CC[C@@H](c4cc(-c5c(F)cccc5F)nnc42)C3(C)C)n1 [Example 91, 6-((5R,8S)-3-(2,6-difluorophenyl)-9,9-dimethyl-5,6,7,8-tetrahydro-5,8-methanocinnolin-8-yl)-N-(2-hydroxyethyl)-N-methylpyrazine-2-carboxamide]	40.8
CC1(C)[C@H]2CC[C@]1(c1cncc(C(=O)NCC#N)n1)c1nnc(-c3c(F)cccc3F)cc12 [Example 92, N-(cyanomethyl)-6-((5R,8S)-3-(2,6-difluorophenyl)-9,9-dimethyl-5,6,7,8-tetrahydro-5,8-methanocinnolin-8-yl)pyrazine-2-carboxamide]	20.6
CC1(C)[C@H]2CC[C@]1(c1cncc(C(=O)N[C@H]3C[C@@H](O)C3)n1)c1nnc(-c3c(F)cccc3F)cc12 [Example 93, 6-((5R,8S)-3-(2,6-difluorophenyl)-9,9-dimethyl-5,6,7,8-tetrahydro-5,8-methanocinnolin-8-yl)-N-((1s,3R)-3-hydroxycyclobutyl)pyrazine-2-carboxamide]	31.8
CC1(C)[C@H]2CC[C@]1(c1cncc(C(=O)N[C@H]3C[C@H](O)C3)n1)c1nnc(-c3c(F)cccc3F)cc12 [Example 94, 6-((5R,8S)-3-(2,6-difluorophenyl)-9,9-dimethyl-5,6,7,8-tetrahydro-5,8-methanocinnolin-8-yl)-N-((1r,3S)-3-hydroxycyclobutyl)pyrazine-2-carboxamide]	21.5
